Measured values from PubChem BioAssay (NCI).
“And” between values parts separate entries of the source, which are not always exact repeats. Identical values can stand only once.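 Briefly, cells in 96-well plates were exposed to five compound concentrations for 48 h, and endpoints were estimated by linear interpolation. Abbreviation: GI50, concentration required for 50% inhibition of growth. TGI denotes the concentration required for complete inhibition of growth.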

Assays:
Test in all cases: DTP human tumour cell line panel, 48 h
[1] = system: U251 CNS
[2] = system: HOP-62 NSCLC
[3] = system: NCI-H226 lung
[4] = system: SK-OV-3 ovarian
[5] = system: EKVX NSCLC
[6] = system: HCT-15 colon
[7] = system: RPMI-8226 leukemia
[8] = system: SR leukemia
[9] = system: SF-539 CNS
[10] = system: OVCAR-4 ovarian

SMILES	GI50 [1] [µM]	TGI [1]	GI50 [2] [µM]	TGI [2]	GI50 [3] [nM]	TGI [3]	GI50 [4] [µM]	TGI [4]	GI50 [5] [µM]	TGI [5]	GI50 [6] [µM]	TGI [6]	GI50 [7] [µM]	TGI [7]	GI50 [8] [µM]	GI50 [9] [µM]	TGI [9]	TGI [10]	TGI [8] [µM]	GI50 [10] [µM]
ClCc1ccc(Cn2cnc3c(Cl)ncnc32)cc1	6.4	15.1 µM	11	23.7 µM	12700	28.6 µM	20	47.6 µM	9.68	19.5 µM	10.6	> 36.7 µM	12.2	33.5 µM	0.0902	10.9	29.2 µM	> 25.7 µM		
CN(C)C(=O)NC(=S)N(C)C		14 µM		1.52 µM		> 100 µM		> 100 µM		> 100 µM		> 100 µM		> 100 µM			> 100 µM	> 100 µM	> 100	
CCCCN=C(N)c1ccc(N2CCCN(c3ccc(C(N)=NCCCC)cc3)CC2)cc1	4.81	> 100 µM	15.8	> 90.1 µM	1660	99.8 µM	> 100	> 100 µM	10.6	> 100 µM	> 100	> 100 µM	5.37	> 59.8 µM	1.36	7.34	> 50.1 µM	> 100 µM	4.44	83.1
CCN(CC)c1ccc(C2NC(=O)c3ccccc3N2)cc1 (stereo not drawn)		> 100 µM		> 100 µM		> 100 µM		> 100 µM		> 100 µM		> 100 µM		> 100 µM			8.68 µM	> 100 µM	> 100	
COc1ccc2nc3cc([N+](=O)[O-])ccc3c(NNc3ccccc3)c2c1	8.08	22 µM and > 100 µM	13.1	29.7 µM and > 100 µM	1630	18.1 µM and 7.66 µM	14.9	35.3 µM and > 100 µM		> 100 µM and 71.8 µM	12	> 100 µM and 67.2 µM	4.8	46.7 µM and > 73.3 µM		11.7	26.4 µM and 75 µM	36.1 µM and > 100 µM	61.8	11.6
COc1cc(/C=C/c2ccc(Br)cc2)cc(OC)c1OC		30.7 µM		49.8 µM		56.6 µM		> 89.9 µM		> 61.3 µM		61.1 µM		20.8 µM			31.9 µM	87.1 µM	> 100	
CC1=C(C(=O)NCc2ccccc2)C(c2ccccc2C)C(C(=O)NCc2ccccc2)=C(C)N1		68.3 µM		69.7 µM		> 84.6 µM		> 100 µM		> 100 µM		36.6 µM		> 100 µM			48.8 µM	> 63.7 µM	81.1	
NC(Cc1c[nH]c2ccc(F)cc12)C(=O)O (stereo not drawn)	728	> 2500 µM	480	2160 µM	626000	> 2500 µM	451	1370 µM	1000	> 2500 µM	1180	> 2500 µM	1240	> 2500 µM	1200	506	1590 µM	> 2500 µM	> 2500	953
O=C(CCl)Nc1cc(Cl)c(Cl)cc1Cl		3.94 µM		3.89 µM		2.48 µM		> 10 µM		4.67 µM		4.3 µM		> 10 µM			3.04 µM	4.06 µM	> 10	
C(=Nc1cnc2ccccc2c1)c1ccc2ccccc2n1		> 100 µM		> 100 µM		> 100 µM		> 100 µM		> 100 µM		> 100 µM		> 100 µM			> 100 µM	> 100 µM	71.4	
CN(C)Cc1ccc(C(C)(C)C)cc1-c1cc(C(C)(C)C)ccc1CN(C)C		> 100 µM		> 100 µM		> 100 µM		> 100 µM		> 100 µM		> 100 µM		> 100 µM			> 100 µM	> 100 µM	> 100	
COc1ccc(Cn2cc3c(c2)-c2oncc2CC3)cc1OC	0.211	> 28.1 µM	0.259	> 50 µM	704	> 50 µM	0.152	1.14 µM	0.233	> 33.7 µM	0.214	> 50 µM	0.19		0.164	0.14	0.559 µM	> 50 µM		0.643
O=C1C=CC(=Nc2cccc3c(N=C4C=CC(=O)O4)cccc23)O1		> 100 µM		> 100 µM		> 100 µM		> 100 µM		35.2 µM		> 100 µM		58.2 µM			36.1 µM	> 100 µM	48.1	
Cc1ccc(Cl)cc1NC(=O)c1cc2ccccc2cc1O	0.319	4.12 µM	0.224	0.673 µM	417	3.1 µM	0.406	2.95 µM	0.342	4.51 µM	0.506		0.106	0.354 µM	0.217	0.356	1.82 µM	> 100 µM	1.21	0.409
Cc1ccc(/C=C/c2c(C(=O)/C=C/c3ccc(Cl)cc3)c(C)nc3ccccc23)cc1	1.7	3.38 µM	2.15	4.68 µM	1920	3.92 µM	3.74	15.7 µM	1.86	4.53 µM	1.45	3.97 µM	2.13	5.95 µM	1.92	1.81	3.3 µM	17.9 µM	> 100	3.97
Cc1ccc(NC(=O)Nc2c(Cl)cccc2Cl)cn1	5.07	> 100 µM	8.33	> 100 µM	> 100000	> 100 µM	5.97	> 100 µM	3.04	> 100 µM	5.61	> 100 µM	9.16	> 100 µM	3.89	5.24	> 100 µM	> 100 µM	22.7	65
